# Where “and” joins values, the source holds several entries; their conditions need not be identical. Identical values can stand only once. Like-named read-outs stand apart in the source and are kept apart here.
# How the values were obtained:
# [1] = test system: detached skin wounds of mice; experiment: Recovery from skin damage (Test Example 5); format: in vivo; details: applied to wound twice a day
# [2] = test system: MRSA or E. coli O-157; format: cell-based; details: organic substance exceeding 50 ppm
# [3] = test system: thumbnails of volunteers; experiment: Elongation of thumbnails (Test Example 7); format: in vivo, human; details: for Elongation of nails: Left (treated) thumbnail
# Source text: As a general rule the bacterial disinfectants were applied immediately after hand washing. Nail growth and shape are closely tied to individual physical condition, and are a benchmark of health.
# [4] = test system: acid-fast bacteria; format: cell-based
# [5] = test system: putrefying bacteria in prepared food; experiment: Viable cell numbers in prepared food after spraying (Test Example 3), summary; format: cell-based
# Source text: With regards to the putrefaction process of prepared food, we investigated whether or not the present bactericidal disinfectant could stop the progress of putrefaction when sprayed of food, and the degree of that bactericidal effect. Normally disinfectants are not applied to prepared food, but very often scraps of food become lodged in a periodontal pocket, providing a nutritional source for bacteria, and since the present bactericidal disinfectant is composed of compounds which are recognized as food additives, it is important to assess these effects. Just-prepared cooked rice, tofu (soybean curd), spinach with sesame dressing, and fried meat and vegetables were each crushed, homogenized, and left at 28° C. for use as the samples. […] Water alone was sprayed as a control. […] Water alone was sprayed as a control. […] Consequently, although complete eradication was not achieved, it can be said that bactericide was largely achieved. That is, there is the ability to halt development of putrefying bacteria in food and a bactericidal effect.
# [6] = test system: plaque adhering to supragingival calculus; experiment: Viable cell numbers in plaque soaked in disinfectant (Test Example 4); format: cell-based; details: 60 minutes of immersion
# [7] = test system: putrefying bacteria in spinach with sesame dressing; experiment: Viable cell numbers in prepared food after spraying (Test Example 3); format: cell-based
# Source text: (§1) With regards to the putrefaction process of prepared food, we investigated whether or not the present bactericidal disinfectant could stop the progress of putrefaction when sprayed of food, and the degree of that bactericidal effect. Normally disinfectants are not applied to prepared food, but very often scraps of food become lodged in a periodontal pocket, providing a nutritional source for bacteria, and since the present bactericidal disinfectant is composed of compounds which are recognized as food additives, it is important to assess these effects. Just-prepared cooked rice, tofu (soybean curd), spinach with sesame dressing, and fried meat and vegetables were each crushed, homogenized, and left at 28° C. for use as the samples. After samples had been left for 5 hours, part of each was taken and used to measure bacterial viable cell number, while the respective disinfectants were sprayed uniformly on the remaining samples. Viable cell numbers were measured 1, 2 and 24 hours after spraying. Water alone was sprayed as a control. After samples had been left for 24 hours part of each was taken for measuring viable cell number, and the respective disinfectants were sprayed uniformly on the remaining samples. As when the samples were left for 5 hours, viable cell numbers were measured 1 hour, 2 hours and 24 hours after spraying. Water alone was sprayed as a control. Viable cell numbers were measured by the poured plate method using 5 g of each sample diluted by ordinary methods.
# (§2) The degree of putrefaction of course differs depending on the preparation method, ingredients and environment, but in the case of the cooked rice in this experiment, the viable cell number immediately after preparation was […] cells/g of sample, rising to 1×10^3 cells/g of sample after 5 hours, 5×10^5 cells/g of sample after 24 hours and 7×10^6 cells/g of sample after 48 hours. In the case of the tofu (soybean curd), the initial viable cell number was 2×10^4 cells/g of sample, rising to 8×10^5 cells/g of sample after 5 hours, 9×10^7 cells/g of sample after 24 hours, and 1×10^9 cells/g of sample after 48 hours, with considerable putrefaction. In the case of the spinach with sesame dressing, the viable cell number was 2×10^3 cells/g of sample immediately after preparation, rising to 5×10^4 cells/g of sample after 5 hours, 3×10^7 cells/g of sample after 24 hours and 2×10^8 cells/g of sample after 48 hours. In the case of the fried meat and vegetables, it was […] cells/g of sample immediately after preparation, rising to 2×10^3 cells/g of sample after 5 hours and 2×10^8 cells/g of sample after 24 hours, at which point there was a slight smell of putrefaction, while after 48 hours putrefaction has progressed still further and the viable cell number had risen to 3×10^9 cells/g of sample.
# [8] = test system: putrefying bacteria in tofu (soybean curd); experiment: as above; format: cell-based
# Source text: as §1, §2
# [9] = test system: putrefying bacteria in fried meat and vegetables; experiment: as above; format: cell-based
# Source text: as §1, §2
# [10] = test system: putrefying bacteria in cooked rice; experiment: as above; format: cell-based
# Source text: as §1, §2
# [11] = test system: Red worms
# Procedure: Red worms with a mean length of 40 mm were prepared in groups of 10, the annuli of the red worms were severed with a cutter, and ordinary concentrations of the various bactericidal disinfectants contained in absorbent cotton were applied to the severed ends twice a day, morning and night. Application to the ends was continued even after the severed ends healed, and recovery and growth were observed. Water was applied as a control.
# [12] = test system: spores of sporulating bacteria; format: cell-based
# [13] = test system: plaque adhering to subgingival calculus; experiment: Viable cell numbers in plaque soaked in disinfectant (Test Example 4); format: cell-based; details: 60 minutes of immersion
# [14] = sprayed after 5 hours, 1 hr after spraying
# [15] = sprayed after 5 hours, 2 hrs after spraying
# [16] = sprayed after 5 hours, 24 hrs after spraying
# [17] = sprayed after 5 hours, just after spraying
# [18] = sprayed after 24 hours, 1 hr after spraying
# [19] = sprayed after 24 hours, 2 hrs after spraying
# [20] = sprayed after 24 hours, 24 hrs after spraying
# [21] = sprayed after 24 hours, just after spraying
# [22] = 5 days after severing, 20 mm when severed
smiles,measurement,setting,value
"OO [3% aqueous hydrogen peroxide, hydrogen peroxide]",Recovery: Complete recovery (coat grown back),[1],40 days
same,Recovery: Skin with roughly original thickness,[1],15 days
same,Recovery: Thin skin overall,[1],5 days
same,bactericidal effect in presence of organic substance,[2],A similar tendency was seen
same,Elongation of nails,[3]; 10 days,0.9 mm
same,Elongation of nails,[3]; 20 days,1.8 mm
same,Elongation of nails,[3]; 30 days,2.7 mm
same,Elongation of nails,[3]; 40 days,3.6 mm
same,Elongation of nails,[3]; 50 days,4.5 mm
same,Elongation of nails,[3]; 60 days,5.4 mm
same,difference in elongation between right and left hands,[3]; applied for 2 months,No significant differences in elongation
same,time required to kill acid-fast bacteria,[4],a minute or more
same,bactericidal effect on putrefying bacteria in food,[5],most of the bacteria survived immediately after spraying
same,survival of bacteria living inside plaque,[6],half survived
same,viable cell number,[7]; [14],4 × 10^2 cells/g of sample
same,viable cell number,[7]; [15],5 × 10^2 cells/g of sample
same,viable cell number,[7]; [16],1 × 10^5 cells/g of sample
same,viable cell number,[7]; [17],1 × 10^3 cells/g of sample
same,viable cell number,[7]; [18],5 × 10^3 cells/g of sample
same,viable cell number,[7]; [19],5 × 10^3 cells/g of sample
same,viable cell number,[7]; [20],7 × 10^6 cells/g of sample
same,viable cell number,[7]; [21],4 × 10^4 cells/g of sample
same,viable cell number,[8]; [14],2 × 10^3 cells/g of sample
same,viable cell number,[8]; [15],3 × 10^4 cells/g of sample
same,viable cell number,[8]; [16],6 × 10^6 cells/g of sample
same,viable cell number,[8]; [17],5 × 10^4 cells/g of sample
same,viable cell number,[8]; [18],3 × 10^4 cells/g of sample
same,viable cell number,[8]; [19],5 × 10^4 cells/g of sample
same,viable cell number,[8]; [20],1 × 10^8 cells/g of sample
same,viable cell number,[8]; [21],7 × 10^5 cells/g of sample
same,viable cell number,[9]; [14],2 × 10^2 cells/g of sample
same,viable cell number,[9]; [15],4 × 10^2 cells/g of sample
same,viable cell number,[9]; [16],5 × 10^6 cells/g of sample
same,viable cell number,[9]; [17],5 × 10^2 cells/g of sample
same,viable cell number,[9]; [18],5 × 10^4 cells/g of sample
same,viable cell number,[9]; [19],1 × 10^5 cells/g of sample
same,viable cell number,[9]; [20],4 × 10^8 cells/g of sample
same,viable cell number,[9]; [21],6 × 10^6 cells/g of sample
same,viable cell number,[10]; [14],1 × 10^2 cells/g of sample
same,viable cell number,[10]; [15],1.8 × 10^2 cells/g of sample
same,viable cell number,[10]; [16],5 × 10^4 cells/g of sample
same,viable cell number,[10]; [17],2 × 10^2 cells/g of sample
same,viable cell number,[10]; [18],9 × 10^3 cells/g of sample
same,viable cell number,[10]; [19],2 × 10^4 cells/g of sample
same,viable cell number,[10]; [20],8 × 10^5 cells/g of sample
same,viable cell number,[10]; [21],4 × 10^4 cells/g of sample
same,length of severed red worms,[11]; [22],21 mm
same,length of severed red worms,[11]; 10 days after severing,22 mm
same,length of severed red worms,[11]; 15 days after severing,23 mm
same,length of severed red worms,[11]; 20 days after severing,24 mm
same,length of severed red worms,[11]; 30 days after severing,25 mm
same,length of severed red worms,[11]; 40 days after severing,27 mm
same,length of severed red worms,[11]; 50 days after severing,28 mm
same,Deaths,[11]; groups of 10 red worms,7
same,effect against spores,[12],ineffective
"CC(O)C(=O)O.CCOc1ccc2nc3cc(N)ccc3c(N)c2c1 [Acrinol, acrinol]",Recovery: Complete recovery (coat grown back),[1],40 days
same,Recovery: Skin with roughly original thickness,[1],15 days
same,Recovery: Thin skin overall,[1],5 days
same,bactericidal effect in presence of organic substance,[2],A similar tendency was seen
same,Elongation of nails,[3]; 10 days,0.8 mm
same,Elongation of nails,[3]; 20 days,1.6 mm
same,Elongation of nails,[3]; 30 days,2.4 mm
same,Elongation of nails,[3]; 40 days,3.3 mm
same,Elongation of nails,[3]; 50 days,4.0 mm
same,Elongation of nails,[3]; 60 days,4.8 mm
same,survival of bacteria living inside plaque,[6],half survived
same,length of severed red worms,[11]; [22],21 mm
same,length of severed red worms,[11]; 10 days after severing,22 mm
same,length of severed red worms,[11]; 15 days after severing,23 mm
same,length of severed red worms,[11]; 20 days after severing,24 mm
same,length of severed red worms,[11]; 30 days after severing,27 mm
same,length of severed red worms,[11]; 40 days after severing,29 mm
same,length of severed red worms,[11]; 50 days after severing,30 mm
same,Deaths,[11]; groups of 10 red worms,8
N=C(NCCCCCCNC(=N)NC(=N)Nc1ccc(Cl)cc1)NC(=N)Nc1ccc(Cl)cc1 [Hibitane],Recovery: Thin skin overall,[1],5 days
same,Recovery: Complete recovery (coat grown back),[1]; listed as Hibitane gel,40 days and 38 days
same,Recovery: Skin with roughly original thickness,[1]; listed as Hibitane gel,12 days
same,bactericidal effect in presence of organic substance,[2],the bacteria did not die after 1 minute of contact
same,Elongation of nails,[3]; 10 days,0.8 mm
same,Elongation of nails,[3]; 20 days,1.7 mm
same,Elongation of nails,[3]; 30 days,2.5 mm
same,Elongation of nails,[3]; 40 days,3.3 mm
same,Elongation of nails,[3]; 50 days,4.2 mm
same,Elongation of nails,[3]; 60 days,5.0 mm
same,effect against acid-fast bacteria,[4],ineffective
same,survival of bacteria in plaque,[13],continued to survive
same,bactericidal effect on putrefying bacteria in food,[5],no bactericidal effect in the real sense
same,survival of bacteria living inside plaque,[6],half survived
same,viable cell number,[7]; [16],6 × 10^2 cells/g of sample
same,viable cell number,[7]; [17],2 × 10^2 cells/g of sample
same,viable cell number,[7]; [18],2 × 10^2 cells/g of sample
same,viable cell number,[7]; [19],1 × 10^2 cells/g of sample
same,viable cell number,[7]; [20],8 × 10^3 cells/g of sample
same,viable cell number,[7]; [21],3 × 10^4 cells/g of sample
same,viable cell number,[8]; [16],2 × 10^2 cells/g of sample
same,viable cell number,[8]; [17],8 × 10^2 cells/g of sample
same,viable cell number,[8]; [18],5 × 10^2 cells/g of sample
same,viable cell number,[8]; [19],2 × 10^2 cells/g of sample
same,viable cell number,[8]; [20],3 × 10^3 cells/g of sample
same,viable cell number,[8]; [21],5 × 10^4 cells/g of sample
same,viable cell number,[9]; [16],5 × 10^3 cells/g of sample
same,viable cell number,[9]; [17],2 × 10^2 cells/g of sample
same,viable cell number,[9]; [18],5 × 10^2 cells/g of sample
same,viable cell number,[9]; [19],2 × 10^2 cells/g of sample
same,viable cell number,[9]; [20],5 × 10^4 cells/g of sample
same,viable cell number,[9]; [21],7 × 10^4 cells/g of sample
same,viable cell number,[10]; [17],1 × 10^2 cells/g of sample
same,viable cell number,[10]; [18],7 × 10^2 cells/g of sample
same,viable cell number,[10]; [19],5 × 10^2 cells/g of sample
same,viable cell number,[10]; [20],4 × 10^3 cells/g of sample
same,viable cell number,[10]; [21],1 × 10^4 cells/g of sample
same,length of severed red worms,[11]; [22],21 mm
same,length of severed red worms,[11]; 10 days after severing,22 mm
same,length of severed red worms,[11]; 15 days after severing,23 mm
same,Deaths,[11]; in vivo,10
same,effect against spores,[12],ineffective

# Reference: US7465576B2, “Method for treating periodontal disease with a bacteriocidal disinfectant” (priority 2004, dated 2008)
